Experimental data published in PubChem BioAssay AID330 (DTP/NCI, 2004).
Where “and” joins values, the source holds several entries; their conditions need not be identical. Equal entries are not always repeated. Inconclusive results and toxic doses are left out. Rule for the calls: active = survival T/C of 150% or more; inactive = T/C below 125% in these data.

Test system: P388 leukemia ip, CD2F1 mice, survival T/C
Experiment: NCI In Vivo Anticancer Drug Screen. Data for tumor model P388 Leukemia (intraperitoneal) in CD2F1 (CDF1) mice
Conditions: endpoint: median survival time, schedule: Q01DX009 (ip), vehicle: saline, higher = longer survival
How it was run: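 Mice carrying the transplanted tumor received test compound or vehicle. Survival was recorded in each group, and the value is the treated-group measurement divided by that of the vehicle-treated control group.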

Measured: T/C

Cn1cnc([N+](=O)[O-])c1Sc1ccncn1
inactive: dose: 25.0 mg/kg/injection 101 % of control and 105 % of control | dose: 50.0 mg/kg/injection 99 % of control and 103 % of control and 114 % of control | dose: 100.0 mg/kg/injection 103 % of control and 118 % of control | dose: 200.0 mg/kg/injection 112 % of control and 116 % of control
